In patent US5521319A, “Biotinylation reagent and method of use thereof” (priority 1993, dated 1996):
≈ marks a conversion by molar mass, not a printed value.

Assays:
[1] = cited from earlier work; for Solubility in organic solvents: organic solvents with the exception of DMSO and DMF
[2] = Solubility of biotinylation reagents at 20° C.; assay type: physicochemical; conditions: for Solubility in DMF / Solubility in methanol / Solubility in water / Solubility in dichloromethane: 20° C.
Excerpt: [table 1: the next 15 blocks are its lines as printed, fixed-width]

[3] = tested on: TSH; experiment: Immunological determination of TSH using streptavidin magnetic particles and photometric signal measurement
Excerpt: (§1) After dialysis against 25 mmol/l potassium phosphate/50 mmol/l sodium chloride pH 7.0, the product is lyophilized.

[4] = tested on: TSH; experiment: Electrochemiluminescence immunological determination of TSH with biotinylated antibody, ruthenium-labelled F(ab')2 and streptavidin magnetic particles
Excerpt: as §1

[5] = electrochemiluminescence measurement, vs biotin-NHS

SMILES | Solubility in organic solvents [1] | Solubility in water and aqueous buffer solutions [1] | Solubility in DMF [2] [mg/mL] | Solubility in methanol [2] [mg/mL] | Solubility in water ([2]; water) [mg/mL] | Solubility in dichloromethane ([2]; dichloromethane) [mg/mL] | Signal of biotinylated antibodies compared with spacer-free biotin-NHS [4, 5] | other results
O=C(CCCC[C@@H]1SC[C@@H]2NC(=O)N[C@@H]21)NCCCCCC(=O)ON1C(=O)CC(S(=O)(=O)O)C1=O (some centres unmarked) [sulfo-NHS-LC-biotin] | – | – | – | – | – | – | – | Solubility in an aqueous medium ([1]; aqueous medium): good solubility; Solubility in organic solvents in the required concentrations ([1]; organic solvents, in the required concentrations): not soluble
O=C1N[C@H]2[C@H](CS[C@H]2CCCCC(=O)ON2C(=O)CCC2=O)N1 [biotin-NHS, biotin-N-hydroxysuccinimide esters] | only moderately soluble | only moderate solubility | – | – | – | – | – | –
O=C(CCCC[C@@H]1SC[C@@H]2NC(=O)N[C@@H]21)NCCCCCC(=O)ON1C(=O)CCC1=O [NHS-LC-biotin] | – | – | 20 (≈ 44 mM) | 20 (≈ 44 mM) | 2 (≈ 4.4 mM) | – | – | –
O=C(CCCCCCC(=O)ON1C(=O)CCC1=O)NCCOCCOCCNC(=O)CCCC[C@@H]1SC[C@@H]2NC(=O)N[C@@H]21 [biotin-DDS, biotinoyl-amino-3,6-dioxaoctanyl-aminocarbonyl-heptanoic acid-N-hydroxysuccinimide ester] | – | – | 20 (≈ 31.9 mM) | 20 (≈ 31.9 mM) | 7 (≈ 11.2 mM) | 10 (≈ 15.9 mM) | considerably higher signals | Solubility spectrum compared with known reagents ([2]; compared with biotinylation reagents of the state of the art): considerably broader solubility spectrum than known compounds; Solubility in strongly polar (water) and non-polar (dichloromethane) solvents ([2]; water, dichloromethane): good solubility; Photometric signal of labelled antibody compared with biotin-X-NHS ([3]; magnetic particle test with antibody-POD conjugate, vs antibody biotinylated with biotin-X-NHS): significantly higher signals; Degree of biotinylation giving the signal optimum ([3]; photometric measurement): signal optimum at a lower degree of biotinylation; Performance of conjugates produced with the reagent, better than with biotin-NHS ([4]; electrochemiluminescence and other immunological tests with spherical solid phases, vs biotin-NHS): about 3.5 fold; Performance of conjugates produced with the reagent, better than with biotin-X-NHS ([4]; electrochemiluminescence and other immunological tests with spherical solid phases, vs biotin-X-NHS): 1.3 fold; Signal yield of antibodies biotinylated via biotin-DDS, higher than via biotin-X-NHS ([4]; electrochemiluminescence measurement, vs antibodies biotinylated via biotin-X-NHS): 25.7%
O=C(CCCC[C@@H]1SC[C@@H]2NC(=O)N[C@@H]21)NCCCCCC(=O)ON1C(=O)CCC1=O [biotin-X-NHS, biotinoylaminocaproic acidN-hydroxysuccinimide ester] | only moderately soluble | only moderate solubility | 10 (≈ 22 mM) | 10 (≈ 22 mM) | 10 (≈ 22 mM) | < 1 | considerably higher signals | –
